{"source": "patent US5571892A", "about": "“Polypeptide and anti-HIV drug prepared therefrom” (priority 1990, dated 1996)", "key": {"MT-4 cells": {"tested_on": "MT-4 cells", "experiment": "Cytotoxicity on virus-non-infected MT-4 cells (MTT method)", "format": "cell-based", "details": "for CC 50 (50% cytotoxic concentration): Table 2, virus-non-infected MT-4 cells, 5 days, MTT method"}, "[1]": {"tested_on": "human immunodeficiency virus (HIV)", "details": "for EC 50 (concentration at which cellular affection due to HIV infection is 50% inhibited): HIV-infected MT-4 cells, MOI 0.001, 5 days, MTT method; for Anti-HIV activity SI / Anti-HIV activity EC50: Table 3; for Anti-HIV activity SI: CC50/EC50; for Anti-HIV activity EC50: tested likewise in Example 2, HIV-infected MT-4 cells", "protocol": "HIV-infected MT-4 cells (2.5×10^4 cells/well, multiplicity of infection (MOI): 0.001) immediately after the infection are added together with a test substance with various changes of the concentration to a 96-well microtiter plate. After incubation at […] for 5 days in a CO2 incubator, the number of survivor cells is measured by the MTT method [Pauwels et al.; J. Virol. Methods, 20, 309-321 (1988)]. […] On the other hand, in order to know the cytotoxicity of the test substance on the MT-4 cells, virus-non-infected cells are incubated, likewise as above, together with the test compound with various changes of the concentration. […] Further, the rough ratio of CC 50 to EC 50 (CC 50/EC 50) is expressed as an effective ratio (SI)."}}, "note": "Where a SMILES comes first, the peptide text is derived from it."}
{"molecule": "CC[C@H](C)[C@@H]1NC(=O)CNC(=O)[C@H](CCCNC(=N)N)NC(=O)[C@H](Cc2ccc(O)cc2)NC(=O)[C@@H]2CSSC[C@H](NC1=O)C(=O)N[C@@H](Cc1ccc(O)cc1)C(=O)N[C@@H](CCCNC(=N)N)C(=O)N[C@@H](CCCCN)C(=O)N[C@H](C(=O)N[C@@H](CCCNC(=N)N)C(N)=O)CSSC[C@H](NC(=O)[C@H](Cc1c[nH]c3ccccc13)NC(=O)[C@@H](N)CCCNC(=N)N)C(=O)N[C@@H](Cc1ccc(O)cc1)C(=O)N[C@@H](CCCNC(=N)N)C(=O)N[C@@H](CCCCN)C(=O)N2", "note": "[Polypeptide (A)] (HELM PEPTIDE1{R.W.C.Y.R.K.C.Y.R.G.I.C.Y.R.K.C.R.[am]}$PEPTIDE1,PEPTIDE1,3:R3-16:R3|PEPTIDE1,PEPTIDE1,7:R3-12:R3$$$V2.0; N-terminus assumed)", "values": [{"measurement": "Cytotoxicity compared with Tachyplesin I", "setting": "MT-4 cells; MT-4 cells, Table 2 data", "result": "somewhat stronger cytotoxicity"}, {"measurement": "CC 50 (50% cytotoxic concentration)", "setting": "MT-4 cells", "result": 39, "unit": "µg/mL"}, {"measurement": "CC 50 relative to azidothymidine (times higher)", "setting": "MT-4 cells; compared with azidothymidine, Table 2 data", "result": 60, "unit": "times"}, {"measurement": "EC 50 (concentration at which cellular affection due to HIV infection is 50% inhibited)", "setting": "[1]; Table 2", "result": 0.35, "unit": "µg/mL"}, {"measurement": "SI (effective ratio, CC 50/EC 50)", "setting": "[1]; Table 2, rough ratio of CC 50 to EC 50", "result": 110}, {"measurement": "Anti-HIV activity SI", "setting": "[1]", "result": 1144}, {"measurement": "Anti-HIV activity EC50", "setting": "[1]", "result": 0.039, "unit": "µg/mL"}, {"measurement": "Concentration for antiviral activity relative to Tachyplesin I", "setting": "[1]; compared with Tachyplesin I, Table 2 data", "result": "1/50"}]}
{"molecule": "[H][C@]12CSSC[C@]([H])(NC(=O)[C@]([H])([C@@H](C)CC)NC(=O)CNC(=O)[C@H](CCCNC(=N)N)NC(=O)[C@H](Cc3ccc(O)cc3)NC1=O)C(=O)N[C@@H](Cc1ccc(O)cc1)C(=O)N[C@@H](CCCNC(=N)N)C(=O)N[C@@H](CCCNC(=N)N)C(=O)N[C@H](C(=O)N[C@@H](CCCNC(=N)N)C(N)=O)CSSC[C@H](NC(=O)[C@H](Cc1c[nH]c3ccccc13)NC(=O)[C@@H](N)CCCCN)C(=O)N[C@@H](Cc1ccccc1)C(=O)N[C@@H](CCCNC(=N)N)C(=O)N[C@@H](C(C)C)C(=O)N2", "note": "[Tachyplesin I, reference compound] (HELM PEPTIDE1{K.W.C.F.R.V.C.Y.R.G.I.C.Y.R.R.C.R.[am]}$PEPTIDE1,PEPTIDE1,3:R3-16:R3|PEPTIDE1,PEPTIDE1,7:R3-12:R3$$$V2.0; N-terminus and C-terminus assumed; bridges inferred)", "values": [{"measurement": "CC 50 (50% cytotoxic concentration)", "setting": "MT-4 cells", "result": 49, "unit": "µg/mL"}, {"measurement": "EC 50 (concentration at which cellular affection due to HIV infection is 50% inhibited)", "setting": "[1]; Table 2", "result": 18.1, "unit": "µg/mL"}]}
{"molecule": "(1): polypeptide of the invention, SEQ ID NO: 2, shown only as drawing (WCYRKCYRGICYRKCR)", "values": [{"measurement": "Anti-HIV activity SI", "setting": "[1]", "result": 30}, {"measurement": "Anti-HIV activity EC50", "setting": "[1]", "result": 6.9, "unit": "µg/mL"}]}
